How the values were obtained:
Assay in all cases: Kinase panel
Type in all cases: biochemical
Conditions in all cases: read-out: % Residual Activity
[1] = biological target: T1, PKCη(h) (Homo sapiens, UniProt P24723)
T1 construct: purchased Eurofins (KinaseProfiler)
Procedure, shortened: (§1)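 Kinome-wide selectivity of rilpivirine was profiled in a commercial kinase panel. Radioisotope-based assays run at each kinase's ATP Km gave IC50 values, which were converted to Ki with the Cheng–Prusoff equation.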

[2] = biological target: T2, LRRK2(h) (Homo sapiens, UniProt Q5S007)
T2 construct: purchased Eurofins (KinaseProfiler)
Procedure, shortened: as §1

[3] = biological target: T3, MLK1(h) (Homo sapiens, UniProt P80192)
T3 construct: purchased Eurofins (KinaseProfiler)
Procedure, shortened: as §1

[4] = biological target: T4, cSRC(h) (Homo sapiens, UniProt P12931)
T4 construct: purchased Eurofins (KinaseProfiler)
Procedure, shortened: as §1

[5] = biological target: T5, SGK2(h) (Homo sapiens, UniProt Q9HBY8)
T5 construct: purchased Eurofins (KinaseProfiler)
Procedure, shortened: as §1

[6] = biological target: T6, PAK4(h) (Homo sapiens, UniProt O96013)
T6 construct: purchased Eurofins (KinaseProfiler)
Procedure, shortened: as §1

[7] = biological target: T7, Plk4(h) (Homo sapiens, UniProt O00444)
T7 construct: purchased Eurofins (KinaseProfiler)
Procedure, shortened: as §1

[8] = biological target: T8, CDK4/cyclinD3(h) (Homo sapiens, UniProt P11802)
T8 construct: purchased Eurofins (KinaseProfiler)
Procedure, shortened: as §1

[9] = biological target: T9, CDK9/cyclin T1(h) (Homo sapiens, UniProt P50750)
T9 construct: purchased Eurofins (KinaseProfiler)
Procedure, shortened: as §1

[10] = biological target: T10, PRKG2(h) (Homo sapiens, UniProt Q13237)
T10 construct: purchased Eurofins (KinaseProfiler)
Procedure, shortened: as §1

[11] = biological target: T11, MLK3(h) (Homo sapiens, UniProt Q16584)
T11 construct: purchased Eurofins (KinaseProfiler)
Procedure, shortened: as §1

[12] = biological target: T12, CDK12/cyclinK(h) (Homo sapiens, UniProt Q9NYV4)
T12 construct: purchased Eurofins (KinaseProfiler)
Procedure, shortened: as §1

[13] = biological target: T13, IRAK4(h) (Homo sapiens, UniProt Q9NWZ3)
T13 construct: purchased Eurofins (KinaseProfiler)
Procedure, shortened: as §1

[14] = biological target: T14, cKit(D816V)(h) (Homo sapiens, UniProt P10721, D816V)
T14 construct: purchased Eurofins (KinaseProfiler)
Procedure, shortened: as §1

[15] = biological target: T15, NDR2(h) (Homo sapiens, UniProt Q9Y2H1)
T15 construct: purchased Eurofins (KinaseProfiler)
Procedure, shortened: as §1

[16] = biological target: T16, PKR(h) (Homo sapiens, UniProt P19525)
T16 construct: purchased Eurofins (KinaseProfiler)
Procedure, shortened: as §1

[17] = biological target: T17, JNK2α2(h) (Homo sapiens, UniProt P45984)
T17 construct: purchased Eurofins (KinaseProfiler)
Procedure, shortened: as §1

[18] = biological target: T18, Fes(h) (Homo sapiens, UniProt P07332)
T18 construct: purchased Eurofins (KinaseProfiler)
Procedure, shortened: as §1

[19] = biological target: T19, FGFR2(N549H)(h) (Homo sapiens, UniProt P21802, N549H)
T19 construct: purchased Eurofins (KinaseProfiler)
Procedure, shortened: as §1

[20] = biological target: T20, IR(h), activated (Homo sapiens, UniProt P06213)
T20 construct: purchased Eurofins (KinaseProfiler)
Procedure, shortened: as §1

[21] = biological target: T21, PRP4(h) (Homo sapiens, UniProt Q13523)
T21 construct: purchased Eurofins (KinaseProfiler)
Procedure, shortened: as §1

[22] = biological target: T22, BTK(h) (Homo sapiens, UniProt Q06187)
T22 construct: purchased Eurofins (KinaseProfiler)
Procedure, shortened: as §1

[23] = biological target: T23, ROCK-I(h) (Homo sapiens, UniProt Q13464)
T23 construct: purchased Eurofins (KinaseProfiler)
Procedure, shortened: as §1

[24] = biological target: T24, SRPK2(h) (Homo sapiens, UniProt P78362)
T24 construct: purchased Eurofins (KinaseProfiler)
Procedure, shortened: as §1

[25] = biological target: T25, ChaK1(h) (Homo sapiens, UniProt Q96QT4)
T25 construct: purchased Eurofins (KinaseProfiler)
Procedure, shortened: as §1

[26] = biological target: T26, TLK1(h) (Homo sapiens, UniProt Q9UKI8)
T26 construct: purchased Eurofins (KinaseProfiler)
Procedure, shortened: as §1

[27] = biological target: T27, GRK6(h) (Homo sapiens, UniProt P43250)
T27 construct: purchased Eurofins (KinaseProfiler)
Procedure, shortened: as §1

[28] = biological target: PI3 Kinase (p110a(E542K)/p85a)(m) (Mus musculus, UniProt P42337, E542K)
Procedure, shortened: as §1

[29] = biological target: T28, CaMKK1(h) (Homo sapiens, UniProt Q8N5S9)
T28 construct: purchased Eurofins (KinaseProfiler)
Procedure, shortened: as §1

[30] = biological target: T29, STK32A(h) (Homo sapiens, UniProt Q8WU08)
T29 construct: purchased Eurofins (KinaseProfiler)
Procedure, shortened: as §1

[31] = biological target: T30, WNK3(h) (Homo sapiens, UniProt Q9BYP7)
T30 construct: purchased Eurofins (KinaseProfiler)
Procedure, shortened: as §1

[32] = biological target: T31, ULK2(h) (Homo sapiens, UniProt Q8IYT8)
T31 construct: purchased Eurofins (KinaseProfiler)
Procedure, shortened: as §1

[33] = biological target: T32, PI3 Kinase (p110a/p65a)(m) (Mus musculus, UniProt P42337)
T32 construct: purchased Eurofins (KinaseProfiler)
Procedure, shortened: as §1

[34] = biological target: T33, PKAcβ(h) (Homo sapiens, UniProt P22694)
T33 construct: purchased Eurofins (KinaseProfiler)
Procedure, shortened: as §1

[35] = biological target: T34, PI3 Kinase (p120g)(h) (Homo sapiens, UniProt P48736)
T34 construct: purchased Eurofins (KinaseProfiler)
Procedure, shortened: as §1

[36] = biological target: T35, BrSK1(h) (Homo sapiens, UniProt Q8TDC3)
T35 construct: purchased Eurofins (KinaseProfiler)
Procedure, shortened: as §1

[37] = biological target: T36, CK1γ2(h) (Homo sapiens, UniProt P78368)
T36 construct: purchased Eurofins (KinaseProfiler)
Procedure, shortened: as §1

[38] = biological target: T37, SBK1(h) (Homo sapiens, UniProt Q52WX2)
T37 construct: purchased Eurofins (KinaseProfiler)
Procedure, shortened: as §1

T20 sequence (P06213 28-1382): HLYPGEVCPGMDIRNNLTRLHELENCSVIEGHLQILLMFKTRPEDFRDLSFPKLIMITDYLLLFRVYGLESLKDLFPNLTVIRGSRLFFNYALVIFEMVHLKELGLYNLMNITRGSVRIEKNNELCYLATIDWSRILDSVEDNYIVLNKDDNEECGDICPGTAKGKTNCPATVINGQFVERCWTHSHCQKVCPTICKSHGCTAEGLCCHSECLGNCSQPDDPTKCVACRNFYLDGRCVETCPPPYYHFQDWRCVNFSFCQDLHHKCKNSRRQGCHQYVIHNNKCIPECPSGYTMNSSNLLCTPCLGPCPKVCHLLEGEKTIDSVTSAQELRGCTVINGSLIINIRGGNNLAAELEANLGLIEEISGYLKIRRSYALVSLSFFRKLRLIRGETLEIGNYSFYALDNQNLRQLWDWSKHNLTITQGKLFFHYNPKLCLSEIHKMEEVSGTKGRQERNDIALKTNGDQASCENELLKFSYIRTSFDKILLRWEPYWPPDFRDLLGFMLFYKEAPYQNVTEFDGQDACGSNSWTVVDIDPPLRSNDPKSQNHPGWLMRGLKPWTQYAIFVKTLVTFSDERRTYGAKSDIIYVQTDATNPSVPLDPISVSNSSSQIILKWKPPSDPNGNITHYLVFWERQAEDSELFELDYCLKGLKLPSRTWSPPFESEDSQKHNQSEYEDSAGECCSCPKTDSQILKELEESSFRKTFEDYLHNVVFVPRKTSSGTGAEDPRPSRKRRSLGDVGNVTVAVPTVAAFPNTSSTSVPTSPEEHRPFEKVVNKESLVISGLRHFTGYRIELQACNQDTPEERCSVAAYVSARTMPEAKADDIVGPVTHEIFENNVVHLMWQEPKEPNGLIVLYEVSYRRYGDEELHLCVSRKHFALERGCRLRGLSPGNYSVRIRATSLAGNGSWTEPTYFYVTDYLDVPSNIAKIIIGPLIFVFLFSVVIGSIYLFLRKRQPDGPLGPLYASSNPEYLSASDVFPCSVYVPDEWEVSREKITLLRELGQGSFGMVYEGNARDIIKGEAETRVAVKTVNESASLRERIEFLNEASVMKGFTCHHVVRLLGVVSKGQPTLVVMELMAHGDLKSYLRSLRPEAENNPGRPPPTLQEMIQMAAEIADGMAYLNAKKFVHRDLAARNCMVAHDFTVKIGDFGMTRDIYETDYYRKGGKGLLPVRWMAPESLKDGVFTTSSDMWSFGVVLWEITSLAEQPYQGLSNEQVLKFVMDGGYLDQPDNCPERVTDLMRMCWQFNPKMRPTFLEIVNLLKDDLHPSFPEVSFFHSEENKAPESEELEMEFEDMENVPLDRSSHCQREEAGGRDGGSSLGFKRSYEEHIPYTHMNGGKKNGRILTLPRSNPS
T18 sequence (P07332 whole entry): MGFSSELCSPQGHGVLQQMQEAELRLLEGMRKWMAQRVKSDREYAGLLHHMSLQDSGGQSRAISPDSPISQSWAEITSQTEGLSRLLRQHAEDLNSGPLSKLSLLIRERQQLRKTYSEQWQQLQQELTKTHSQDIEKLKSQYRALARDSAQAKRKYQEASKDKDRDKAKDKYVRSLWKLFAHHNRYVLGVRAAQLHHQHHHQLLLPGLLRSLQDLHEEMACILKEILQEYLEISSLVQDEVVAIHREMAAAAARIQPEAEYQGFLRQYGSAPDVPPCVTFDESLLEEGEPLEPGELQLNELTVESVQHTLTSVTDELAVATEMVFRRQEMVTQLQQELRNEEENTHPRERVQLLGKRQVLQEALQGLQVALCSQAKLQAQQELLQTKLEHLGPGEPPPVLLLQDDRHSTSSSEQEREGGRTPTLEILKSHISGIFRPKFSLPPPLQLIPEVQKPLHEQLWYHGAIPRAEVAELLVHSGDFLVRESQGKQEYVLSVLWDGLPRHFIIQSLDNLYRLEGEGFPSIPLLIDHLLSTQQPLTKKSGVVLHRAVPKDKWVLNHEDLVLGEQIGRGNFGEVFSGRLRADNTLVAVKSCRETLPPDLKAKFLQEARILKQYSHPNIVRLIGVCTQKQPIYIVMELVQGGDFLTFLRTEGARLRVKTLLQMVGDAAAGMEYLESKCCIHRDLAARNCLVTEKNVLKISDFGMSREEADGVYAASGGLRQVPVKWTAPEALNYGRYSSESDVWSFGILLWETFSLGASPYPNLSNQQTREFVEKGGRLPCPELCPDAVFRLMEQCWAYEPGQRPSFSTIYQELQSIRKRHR
T17 sequence (P45984 whole entry): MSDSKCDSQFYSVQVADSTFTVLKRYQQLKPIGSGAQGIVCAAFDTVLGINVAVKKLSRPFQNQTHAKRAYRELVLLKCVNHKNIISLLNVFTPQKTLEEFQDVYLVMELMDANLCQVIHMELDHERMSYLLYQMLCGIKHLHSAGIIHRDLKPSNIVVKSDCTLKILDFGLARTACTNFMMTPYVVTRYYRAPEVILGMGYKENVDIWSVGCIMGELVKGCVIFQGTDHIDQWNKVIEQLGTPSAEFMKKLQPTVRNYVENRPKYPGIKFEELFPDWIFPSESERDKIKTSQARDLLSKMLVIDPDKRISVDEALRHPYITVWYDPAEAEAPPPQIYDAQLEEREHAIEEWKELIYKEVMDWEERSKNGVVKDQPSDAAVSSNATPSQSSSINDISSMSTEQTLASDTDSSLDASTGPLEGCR
T31 sequence (Q8IYT8 whole entry): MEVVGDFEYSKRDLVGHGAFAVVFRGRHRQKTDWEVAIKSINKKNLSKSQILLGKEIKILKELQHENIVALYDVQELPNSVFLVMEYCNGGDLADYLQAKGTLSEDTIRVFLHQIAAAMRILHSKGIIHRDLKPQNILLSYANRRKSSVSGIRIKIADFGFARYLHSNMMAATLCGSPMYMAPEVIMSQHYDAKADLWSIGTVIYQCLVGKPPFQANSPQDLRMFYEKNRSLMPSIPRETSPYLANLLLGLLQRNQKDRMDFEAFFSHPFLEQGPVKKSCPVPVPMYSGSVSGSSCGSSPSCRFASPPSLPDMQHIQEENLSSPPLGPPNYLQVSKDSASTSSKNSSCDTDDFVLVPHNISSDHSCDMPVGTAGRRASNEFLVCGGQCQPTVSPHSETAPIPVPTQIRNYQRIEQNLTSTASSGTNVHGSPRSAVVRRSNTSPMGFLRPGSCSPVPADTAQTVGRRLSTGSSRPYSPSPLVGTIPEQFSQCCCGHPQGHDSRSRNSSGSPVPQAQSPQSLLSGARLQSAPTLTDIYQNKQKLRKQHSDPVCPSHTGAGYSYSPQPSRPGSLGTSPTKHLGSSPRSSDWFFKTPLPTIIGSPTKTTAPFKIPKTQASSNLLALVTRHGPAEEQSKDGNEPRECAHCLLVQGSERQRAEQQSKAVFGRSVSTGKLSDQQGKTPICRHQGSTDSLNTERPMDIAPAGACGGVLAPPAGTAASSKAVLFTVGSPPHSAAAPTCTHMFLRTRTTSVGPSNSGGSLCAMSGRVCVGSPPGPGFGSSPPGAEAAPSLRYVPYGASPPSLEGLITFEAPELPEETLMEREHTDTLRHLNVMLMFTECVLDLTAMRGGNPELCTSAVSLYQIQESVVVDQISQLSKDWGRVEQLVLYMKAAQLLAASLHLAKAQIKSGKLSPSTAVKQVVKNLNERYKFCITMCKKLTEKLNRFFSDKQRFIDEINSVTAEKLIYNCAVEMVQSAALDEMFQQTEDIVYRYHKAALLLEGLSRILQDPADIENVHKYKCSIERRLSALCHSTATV
T11 sequence (Q16584 whole entry): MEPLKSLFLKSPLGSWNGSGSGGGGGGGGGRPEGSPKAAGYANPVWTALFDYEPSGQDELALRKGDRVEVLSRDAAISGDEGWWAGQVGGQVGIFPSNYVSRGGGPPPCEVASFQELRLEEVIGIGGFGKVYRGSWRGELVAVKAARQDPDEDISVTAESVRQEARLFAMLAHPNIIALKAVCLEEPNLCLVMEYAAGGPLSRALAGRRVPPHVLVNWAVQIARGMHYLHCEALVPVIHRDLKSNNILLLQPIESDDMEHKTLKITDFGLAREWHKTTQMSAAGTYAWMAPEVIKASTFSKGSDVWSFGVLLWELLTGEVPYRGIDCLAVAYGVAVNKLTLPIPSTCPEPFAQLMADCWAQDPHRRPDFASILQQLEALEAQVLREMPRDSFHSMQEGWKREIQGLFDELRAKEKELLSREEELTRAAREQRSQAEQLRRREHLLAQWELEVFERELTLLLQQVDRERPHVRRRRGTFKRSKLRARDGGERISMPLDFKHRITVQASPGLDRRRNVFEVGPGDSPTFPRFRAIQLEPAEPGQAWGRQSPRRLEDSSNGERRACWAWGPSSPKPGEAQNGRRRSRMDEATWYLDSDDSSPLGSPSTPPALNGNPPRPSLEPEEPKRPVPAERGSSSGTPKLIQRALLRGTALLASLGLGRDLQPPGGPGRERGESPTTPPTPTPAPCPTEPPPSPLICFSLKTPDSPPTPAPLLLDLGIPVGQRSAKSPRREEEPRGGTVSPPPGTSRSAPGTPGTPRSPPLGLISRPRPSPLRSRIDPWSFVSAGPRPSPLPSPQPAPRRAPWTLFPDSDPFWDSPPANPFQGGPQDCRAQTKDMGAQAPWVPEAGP
T4 sequence (P12931 whole entry): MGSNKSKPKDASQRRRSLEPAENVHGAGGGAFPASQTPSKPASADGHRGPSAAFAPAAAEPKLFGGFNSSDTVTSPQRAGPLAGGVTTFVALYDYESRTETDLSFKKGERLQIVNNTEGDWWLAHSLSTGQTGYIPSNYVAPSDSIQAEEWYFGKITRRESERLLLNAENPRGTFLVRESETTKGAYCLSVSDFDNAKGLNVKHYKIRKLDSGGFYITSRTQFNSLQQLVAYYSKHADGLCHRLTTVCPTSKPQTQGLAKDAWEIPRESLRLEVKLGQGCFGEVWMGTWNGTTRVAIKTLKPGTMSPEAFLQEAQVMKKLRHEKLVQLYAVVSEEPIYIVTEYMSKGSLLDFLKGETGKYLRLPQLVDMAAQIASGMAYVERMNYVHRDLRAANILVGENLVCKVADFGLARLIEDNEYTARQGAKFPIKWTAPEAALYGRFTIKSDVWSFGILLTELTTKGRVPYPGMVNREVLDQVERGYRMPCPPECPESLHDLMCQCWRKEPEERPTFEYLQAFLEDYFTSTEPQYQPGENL

Cc1cc(/C=C/C#N)cc(C)c1Nc1ccnc(Nc2ccc(C#N)cc2)n1 [rilpivirine, (E)-4-((4-((4-(2-cyanoethenyl)-2,6-dimethylphenyl)amino)pyrimidin-2-yl)amino)benzonitrile]
remaining activity at 1 µM [1]: 103%
remaining activity at 1 µM [2]: 93%
remaining activity at 1 µM [3]: 81%
remaining activity at 1 µM [4]: 53%
remaining activity at 1 µM [5]: 97%
remaining activity at 1 µM [6]: 87%
remaining activity at 1 µM [7]: 85%
remaining activity at 1 µM [8]: 101%
remaining activity at 1 µM [9]: 81%
remaining activity at 1 µM [10]: 92%
remaining activity at 1 µM [11]: 81%
remaining activity at 1 µM [12]: 85%
remaining activity at 1 µM [13]: 80%
remaining activity at 1 µM [14]: 88%
remaining activity at 1 µM [15]: 100%
remaining activity at 1 µM [16]: 92%
remaining activity at 1 µM [17]: 85%
remaining activity at 1 µM [18]: 85%
remaining activity at 1 µM [19]: 91%
remaining activity at 1 µM [20]: 85%
remaining activity at 1 µM [21]: 113%
remaining activity at 1 µM [22]: 90%
remaining activity at 1 µM [23]: 95%
remaining activity at 1 µM [24]: 91%
remaining activity at 1 µM [25]: 94%
remaining activity at 1 µM [26]: 95%
remaining activity at 1 µM [27]: 97%
remaining activity at 1 µM [28]: 101%
remaining activity at 1 µM [29]: 90%
remaining activity at 1 µM [30]: 89%
remaining activity at 1 µM [31]: 83%
remaining activity at 1 µM [32]: 90%
remaining activity at 1 µM [33]: 104%
remaining activity at 1 µM [34]: 93%
remaining activity at 1 µM [35]: 87%
remaining activity at 1 µM [36]: 84%
remaining activity at 1 µM [37]: 90%
remaining activity at 1 µM [38]: 100%
